Where “and” joins values, the source holds several entries; their conditions need not be identical. Equal values may be shown once.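 Step 1: Grow cells in 96-well plates. Step 2: Expose to compound for 48 hours at 5 concentrations. Step 3: Interpolate endpoints linearly; if unreached, use highest concentration. GI50 = concentration required for 50% inhibition of growth. TGI: total growth inhibition.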 Bounds are passed on as bounds.

In the first experiment the test system is NCI-H23 lung. The experiment can be described thus: NCI-60 cell line screen, 48 h.
As for `Cc1nn2c(/C=C3\C(=O)Nc4ccc(Cl)cc43)c(C)nc2s1`, the GI50 was 77.1 µM and the TGI is more than 100 µM.

Consider `c1ccc2[nH]c(-c3ccc(-c4nccc5c4[nH]c4ccccc45)cc3)nc2c1`, for which the GI50 is 3.47 µM and the TGI came to 17.7 µM.

Regarding `CN(O)c1nc(N(C)O)nc(N2CCOCC2)n1`, the GI50 is 12.4 µM and the TGI is more than 100 µM.

As for `C#Cc1c(F)ccc2cc(O)cc(-c3ncc4c(N5CC6CCC(C5)N6)nc(OC[C@@]56CCCN5C[C@H](F)C6)nc4c3F)c12`, the GI50 is 1.94 µM and the TGI came out at 15.1 µM.

Consider `C=C(C)C(=O)Nc1ccc(NC(C)C)cc1`, for which the GI50 is more than 100 µM and the TGI is more than 100 µM.

For the compound `COc1cc(CSc2nc3ccc(C)cc3c(=O)n2-c2ccccc2)cc(OC)c1OC`, the GI50 was 6.97 µM and the TGI was more than 100 µM.

For the compound `C=C(C)C(=O)O[C@H]1CC(=C)[C@@H]2C[C@H](O)[C@](O)(CCl)[C@@H]2[C@H]2OC(=O)C(=C)[C@@H]21`, the GI50 is 11.6 µM and the TGI was found to be 25.7 µM.

Take `CCC1C2Cc3ccc(O)cc3C1(CC)CCN2C` (centres undefined): the TGI is more than 100 µM.

Take `C(#Cc1ccccc1C#Cc1cccs1)c1cccs1`: the GI50 was 51.6 µM and the TGI was more than 100 µM.

In the case of `CC1CCC(NC(=O)N(CCCl)N=O)CC1` (centres undefined), the GI50 was 61.8 µM and the TGI turned out to be 129 µM.

Take `COc1ccc(C2=CC(c3ccc4c(c3)OCO4)c3c(c4ccccc4oc3=O)O2)cc1OC` (centres undefined): the TGI was more than 100 µM.

On to `CC(C)[C@H](N)C(=O)N1CCC[C@H]1B(O)O`, for which the GI50 is more than 100 µM and the TGI is more than 100 µM.

Consider `CC(C)(C)n1cc(-c2ccnc(NCCCNS(=O)(=O)c3ccc(C(F)(F)F)cc3)c2)c(-c2cccc(O)c2)n1`, for which the GI50 is 1.67 µM and the TGI is 3.18 µM.

For `Nc1c(C(=O)c2cccc(-c3ccncc3)c2)cnn1-c1ccc(F)cc1F`, the GI50 was 10.7 µM and the TGI was more than 25 µM.

With `C=C1C(=O)O[C@H]2[C@H]1CC/C(COC(=O)NCc1ccc(Cn3c(=O)sn(CCCl)c3=O)cc1)=C\CC[C@@]1(C)O[C@@H]21`, the GI50 was 2.18 µM and the TGI was 5.2 µM.

The subject of a further experiment is TK-10 renal. The experiment can be described thus: NCI-60 cell line screen, 48 h.
On to `Cc1nn2c(/C=C3\C(=O)Nc4ccc(Cl)cc43)c(C)nc2s1`, for which the GI50 was more than 100 µM and the TGI was more than 100 µM.

As to `c1ccc2[nH]c(-c3ccc(-c4nccc5c4[nH]c4ccccc45)cc3)nc2c1`, the GI50 was 2.07 µM and the TGI is 4.59 µM.

`CN(O)c1nc(N(C)O)nc(N2CCOCC2)n1`: the GI50 was 5.89 µM and the TGI was more than 100 µM.

As to `C#Cc1c(F)ccc2cc(O)cc(-c3ncc4c(N5CC6CCC(C5)N6)nc(OC[C@@]56CCCN5C[C@H](F)C6)nc4c3F)c12`, the GI50 was 21.8 µM and the TGI was more than 55.5 µM.

For the compound `C=C(C)C(=O)Nc1ccc(NC(C)C)cc1`, the GI50 was more than 100 µM and the TGI was more than 100 µM.

In the case of `COc1cc(CSc2nc3ccc(C)cc3c(=O)n2-c2ccccc2)cc(OC)c1OC`, the GI50 was 8.1 µM and the TGI was more than 100 µM.

For `C=C(C)C(=O)O[C@H]1CC(=C)[C@@H]2C[C@H](O)[C@](O)(CCl)[C@@H]2[C@H]2OC(=O)C(=C)[C@@H]21`, the GI50 was 0.512 µM and the TGI is 1.82 µM.

Turning to `CCC1C2Cc3ccc(O)cc3C1(CC)CCN2C` (centres undefined), the TGI is more than 100 µM.

`C(#Cc1ccccc1C#Cc1cccs1)c1cccs1`: the GI50 was 27.7 µM and the TGI was more than 100 µM.

In the case of `CC1CCC(NC(=O)N(CCCl)N=O)CC1` (centres undefined), the GI50 is 45.2 µM and the TGI worked out at 125 µM.

The compound `COc1ccc(C2=CC(c3ccc4c(c3)OCO4)c3c(c4ccccc4oc3=O)O2)cc1OC` (centres undefined) registered a TGI of more than 100 µM.

Take `CC(C)[C@H](N)C(=O)N1CCC[C@H]1B(O)O`: the GI50 was more than 100 µM and the TGI is more than 100 µM.

Turning to `CC(C)(C)n1cc(-c2ccnc(NCCCNS(=O)(=O)c3ccc(C(F)(F)F)cc3)c2)c(-c2cccc(O)c2)n1`, the GI50 was 2.31 µM and the TGI was 5.28 µM.

Consider `Nc1c(C(=O)c2cccc(-c3ccncc3)c2)cnn1-c1ccc(F)cc1F`, for which the GI50 was more than 15 µM and the TGI is more than 25 µM.

Take `C=C1C(=O)O[C@H]2[C@H]1CC/C(COC(=O)NCc1ccc(Cn3c(=O)sn(CCCl)c3=O)cc1)=C\CC[C@@]1(C)O[C@@H]21`: the GI50 was 1.77 µM and the TGI stood at 3.43 µM.

The subject of the next experiment is SNB-75 CNS. Briefly: NCI-60 cell line screen, 48 h.
In the case of `Cc1nn2c(/C=C3\C(=O)Nc4ccc(Cl)cc43)c(C)nc2s1`, the GI50 was 16 µM and the TGI turned out to be 92.2 µM.

Take `c1ccc2[nH]c(-c3ccc(-c4nccc5c4[nH]c4ccccc45)cc3)nc2c1`: the GI50 is 1.57 µM and the TGI was 4.07 µM.

For the compound `CN(O)c1nc(N(C)O)nc(N2CCOCC2)n1`, the GI50 was 27.2 µM and the TGI is more than 100 µM.

Regarding `C#Cc1c(F)ccc2cc(O)cc(-c3ncc4c(N5CC6CCC(C5)N6)nc(OC[C@@]56CCCN5C[C@H](F)C6)nc4c3F)c12`, the GI50 is 17.1 µM and the TGI turned out to be 46.4 µM.

Take `C=C(C)C(=O)Nc1ccc(NC(C)C)cc1`: the GI50 is more than 100 µM and the TGI is more than 100 µM.

As to `COc1cc(CSc2nc3ccc(C)cc3c(=O)n2-c2ccccc2)cc(OC)c1OC`, the GI50 is 0.328 µM and the TGI was found to be 2.98 µM.

In the case of `C=C(C)C(=O)O[C@H]1CC(=C)[C@@H]2C[C@H](O)[C@](O)(CCl)[C@@H]2[C@H]2OC(=O)C(=C)[C@@H]21`, the GI50 is 6.97 µM and the TGI came to 20.7 µM.

For the compound `CCC1C2Cc3ccc(O)cc3C1(CC)CCN2C` (centres undefined), the TGI was more than 100 µM.

In the case of `C(#Cc1ccccc1C#Cc1cccs1)c1cccs1`, the GI50 is more than 100 µM and the TGI was more than 100 µM.

For the compound `CC1CCC(NC(=O)N(CCCl)N=O)CC1` (centres undefined), the GI50 was 27.3 µM; the TGI is 74.4 µM and 66.7 µM.

As for `COc1ccc(C2=CC(c3ccc4c(c3)OCO4)c3c(c4ccccc4oc3=O)O2)cc1OC` (centres undefined), the TGI is more than 21.4 µM.

In the case of `CC(C)[C@H](N)C(=O)N1CCC[C@H]1B(O)O`, the GI50 was more than 100 µM and the TGI is more than 100 µM.

For `CC(C)(C)n1cc(-c2ccnc(NCCCNS(=O)(=O)c3ccc(C(F)(F)F)cc3)c2)c(-c2cccc(O)c2)n1`, the GI50 is 1.94 µM and the TGI amounted to 6.04 µM.

Regarding `Nc1c(C(=O)c2cccc(-c3ccncc3)c2)cnn1-c1ccc(F)cc1F`, the GI50 is 4.99 µM and the TGI was more than 25 µM.

Regarding `C=C1C(=O)O[C@H]2[C@H]1CC/C(COC(=O)NCc1ccc(Cn3c(=O)sn(CCCl)c3=O)cc1)=C\CC[C@@]1(C)O[C@@H]21`, the GI50 is 7.65 µM and the TGI amounted to 21 µM.

Another experiment relates to MOLT-4 leukemia. The experiment can be described thus: NCI-60 cell line screen, 48 h.
For the compound `Cc1nn2c(/C=C3\C(=O)Nc4ccc(Cl)cc43)c(C)nc2s1`, the GI50 is 35.6 µM and the TGI was more than 100 µM.

`c1ccc2[nH]c(-c3ccc(-c4nccc5c4[nH]c4ccccc45)cc3)nc2c1`: the GI50 is 2.32 µM and the TGI stood at 6.11 µM.

On to `CN(O)c1nc(N(C)O)nc(N2CCOCC2)n1`, for which the GI50 was 7.09 µM and the TGI was more than 100 µM.

For the compound `C#Cc1c(F)ccc2cc(O)cc(-c3ncc4c(N5CC6CCC(C5)N6)nc(OC[C@@]56CCCN5C[C@H](F)C6)nc4c3F)c12`, the GI50 is 8.72 µM and the TGI was 28.4 µM.

On to `C=C(C)C(=O)Nc1ccc(NC(C)C)cc1`, for which the GI50 is more than 100 µM and the TGI was more than 100 µM.

On to `COc1cc(CSc2nc3ccc(C)cc3c(=O)n2-c2ccccc2)cc(OC)c1OC`, for which the GI50 was 3.85 µM and the TGI was more than 100 µM.

Consider `C=C(C)C(=O)O[C@H]1CC(=C)[C@@H]2C[C@H](O)[C@](O)(CCl)[C@@H]2[C@H]2OC(=O)C(=C)[C@@H]21`, for which the GI50 is 1.44 µM and the TGI worked out at 3.84 µM.

With `CCC1C2Cc3ccc(O)cc3C1(CC)CCN2C` (centres undefined), the TGI was more than 100 µM.

As to `C(#Cc1ccccc1C#Cc1cccs1)c1cccs1`, the GI50 was 25.8 µM and the TGI is 80.1 µM.

In the case of `CC1CCC(NC(=O)N(CCCl)N=O)CC1` (centres undefined), the TGI is 40.2 µM and 66.6 µM.

Compound `COc1ccc(C2=CC(c3ccc4c(c3)OCO4)c3c(c4ccccc4oc3=O)O2)cc1OC` (centres undefined) showed a TGI of more than 100 µM.

On to `CC(C)[C@H](N)C(=O)N1CCC[C@H]1B(O)O`, for which the GI50 is more than 100 µM and the TGI is more than 100 µM.

As to `CC(C)(C)n1cc(-c2ccnc(NCCCNS(=O)(=O)c3ccc(C(F)(F)F)cc3)c2)c(-c2cccc(O)c2)n1`, the GI50 was 2.33 µM and the TGI is 6.92 µM.

As to `Nc1c(C(=O)c2cccc(-c3ccncc3)c2)cnn1-c1ccc(F)cc1F`, the GI50 was 8.39 µM and the TGI is more than 25 µM.

Regarding `C=C1C(=O)O[C@H]2[C@H]1CC/C(COC(=O)NCc1ccc(Cn3c(=O)sn(CCCl)c3=O)cc1)=C\CC[C@@]1(C)O[C@@H]21`, the GI50 is 1.85 µM and the TGI was determined as 5.92 µM.

A further experiment relates to NCI-H460 lung. Briefly: NCI-60 cell line screen, 48 h.
`Cc1nn2c(/C=C3\C(=O)Nc4ccc(Cl)cc43)c(C)nc2s1`: the GI50 was 16.3 µM and the TGI is more than 100 µM.

Take `c1ccc2[nH]c(-c3ccc(-c4nccc5c4[nH]c4ccccc45)cc3)nc2c1`: the GI50 was 3.03 µM and the TGI is 9.79 µM.

On to `CN(O)c1nc(N(C)O)nc(N2CCOCC2)n1`, for which the GI50 was 0.8 µM and the TGI is more than 100 µM.

`C#Cc1c(F)ccc2cc(O)cc(-c3ncc4c(N5CC6CCC(C5)N6)nc(OC[C@@]56CCCN5C[C@H](F)C6)nc4c3F)c12`: the GI50 was 6.87 µM and the TGI worked out at 21.2 µM.

For `C=C(C)C(=O)Nc1ccc(NC(C)C)cc1`, the GI50 was more than 100 µM and the TGI is more than 100 µM.

For `COc1cc(CSc2nc3ccc(C)cc3c(=O)n2-c2ccccc2)cc(OC)c1OC`, the GI50 was 2.3 µM and the TGI was more than 100 µM.

On to `C=C(C)C(=O)O[C@H]1CC(=C)[C@@H]2C[C@H](O)[C@](O)(CCl)[C@@H]2[C@H]2OC(=O)C(=C)[C@@H]21`, for which the GI50 is 10.2 µM and the TGI came to 28.2 µM.

In turn, `CCC1C2Cc3ccc(O)cc3C1(CC)CCN2C` (centres undefined) showed a TGI of more than 100 µM.

Turning to `C(#Cc1ccccc1C#Cc1cccs1)c1cccs1`, the GI50 is 47.4 µM and the TGI was more than 100 µM.

For the compound `CC1CCC(NC(=O)N(CCCl)N=O)CC1` (centres undefined), the GI50 is 28 µM and the TGI was determined as 100 µM.

Take `COc1ccc(C2=CC(c3ccc4c(c3)OCO4)c3c(c4ccccc4oc3=O)O2)cc1OC` (centres undefined): the TGI was more than 100 µM.

For the compound `CC(C)[C@H](N)C(=O)N1CCC[C@H]1B(O)O`, the GI50 is more than 100 µM and the TGI was more than 100 µM.

For `CC(C)(C)n1cc(-c2ccnc(NCCCNS(=O)(=O)c3ccc(C(F)(F)F)cc3)c2)c(-c2cccc(O)c2)n1`, the GI50 was 1.86 µM and the TGI was determined as 3.57 µM.

Turning to `Nc1c(C(=O)c2cccc(-c3ccncc3)c2)cnn1-c1ccc(F)cc1F`, the GI50 was 5.2 µM and the TGI is more than 25 µM.

For the compound `C=C1C(=O)O[C@H]2[C@H]1CC/C(COC(=O)NCc1ccc(Cn3c(=O)sn(CCCl)c3=O)cc1)=C\CC[C@@]1(C)O[C@@H]21`, the GI50 is 15 µM and the TGI came out at 32.5 µM.

These data come from PubChem BioAssay (NCI).
